Results on 25 compounds are retold here after patent publication US9758527B2, “Cyclohexene derivative, preparation method therefor, and pharmaceutical composition for preventing or treating metabolic diseases, containing same as active ingredient” (HYUNDAI PHARM CO., LTD., priority 2014, dated 2017).

Molecules are shown by their SMILES. Read-outs that look alike come from different tables or passages of the source.

The assay addresses T1, G protein-coupled receptor 119 (GPR-119) (Mesocricetus auratus, UniProt A0A1U8CD06).
T1 construct: hamster-derived β-cells containing G protein-coupled receptor 119 (GPR-119), HIT-T15 cells; host or cells: HIT-T15 (hamster pancreatic β-cells)
T1 sequence (A0A1U8CD06 1-334): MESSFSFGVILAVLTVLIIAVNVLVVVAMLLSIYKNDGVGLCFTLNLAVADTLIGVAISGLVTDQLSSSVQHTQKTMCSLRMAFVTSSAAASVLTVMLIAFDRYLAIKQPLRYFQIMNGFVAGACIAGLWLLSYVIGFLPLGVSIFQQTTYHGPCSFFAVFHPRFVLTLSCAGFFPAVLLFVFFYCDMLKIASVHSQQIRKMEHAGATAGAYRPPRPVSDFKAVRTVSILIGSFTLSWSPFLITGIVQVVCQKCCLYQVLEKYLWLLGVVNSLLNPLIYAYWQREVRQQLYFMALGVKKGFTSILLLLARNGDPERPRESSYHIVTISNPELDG
As to the kind of experiment: Evaluation of cAMP activity in HIT-T15 cells (HTRF cAMP dynamic kit). The class given is cell-based, hamster. To be noted: cAMP activation. On the procedure: To check whether the cyclohexene derivatives according to the present invention activate cyclic adenosine monophosphate (cAMP), experiments were carried out, as follows.
The HIT-T15 cells were plated on a 96-well plate at 60,000 cells per well. On the next day of plating, the cells were treated with a varying concentration of each of the example compounds according to the present invention, and incubated at 37° C. for an hour. In this case, each of the treated compounds was used at six concentrations, ranging from […], to treat the cells.
The cyclic adenosine monophosphate (cAMP) activity was measured according to the manufacturer's instruction using a cAMP dynamic kit commercially available from Cis Bio Inc. (Bedford, Mass.). The cells were lysed, and a level of cAMP was determined by a competitive immunoassay using D2-labeled cAMP and a cryptate-labeled anti-cAMP antibody. Fluorescence was read in Flex Station (Molecular Devices). […] Unlabeled cAMP in the cell lysate competed with the D2-labeled cAMP against the cryptate-labeled antibody. Since a decrease in the measured intensity of the FRET signals represents a level of cAMP in the cells, the cAMP activities of the compounds are calculated as a change in FRET signals by adjusting an amount of dimethyl sulfoxide (DMSO).

The mark [1] stands for this setting: 1 h at 37° C., six concentrations, read-out: EC50.

Turning to `CC(C)(C)OC(=O)N1CCC(COc2ccc(C3=CCC(C(=O)NCC(F)(F)F)CC3)cn2)CC1` (stereo not shown) [Example 86, tert-butyl 4-((5-(4-(2,2,2-trifluoroethylcarbamoyl)cyclohex-1-enyl)pyridin-2-yloxy)methyl)piperidine-1-carboxylate], the EC50 – broadly, the concentration needed to bring the measured effect to its halfway point – under setting [1] is 130 nM. Still for that read-out and setting: the value for `CCc1cnc(N2CCC(COc3ccc(C4=CCC(C(=O)NCC(C)(C)CO)CC4)cc3)CC2)nc1` (stereo not shown) [Example 177, 4-(4-((1-(5-ethylpyrimidin-2-yl)piperidin-4-yl)methoxy)phenyl)-N-(3-hydroxy-2,2-dimethylpropyl)cyclohex-3-enecarboxamide] was 38 nM.

Take `CC(C)c1noc(N2CCC(COc3ccc(C4=CCC(C(=O)N5CCC(O)CC5)CC4)cc3)CC2)n1` (stereo not shown) [Example 182, (4-hydroxypiperidin-1-yl)(4-(4-((1-(3-isopropyl-1,2,4-oxadiazol-5-yl)piperidin-4-yl)methoxy)phenyl)cyclohex-3-enyl)methanone]: the EC50 by setting is: under setting [1], 27 nM; (read-out: EC50 value) at most 50 nM. As for `C[C@@H](O)CNC(=O)C1CC=C(c2ccc(OCC3CCN(C(=O)OC(C)(C)C)CC3)cc2F)CC1` (stereo partly drawn) [Example 126, tert-butyl 4-((3-fluoro-4-(4-((R)-2-hydroxypropylcarbamoyl)cyclohex-1-enyl)phenoxy)methyl)piperidine-1-carboxylate], under setting [1], the EC50 came out at 130 nM.

Turning to `CCc1cnc(N2CCC(COc3ccc(C4=CCC(C(=O)NCCCO)CC4)cc3)CC2)nc1` (stereo not shown) [Example 9, 4-(4-((1-(5-ethylpyrimidin-2-yl)piperidin-4-yl)methoxy)phenyl)-N-(3-hydroxypropyl)cyclohex-3-enecarboxamide], under setting [1], the EC50 came to 75 nM. In the case of `CC(C)c1noc(N2CCC(COc3ccc(C4=CCC(C(=O)NC[C@H](O)CO)CC4)nc3)CC2)n1` (stereo partly drawn) [Example 41, N-((S)-2,3-dihydroxypropyl)-4-(5-((1-(3-isopropyl-1,2,4-oxadiazol-5-yl)piperidin-4-yl)methoxy)pyridin-2-yl)cyclohex-3-enecarboxamide], the EC50 under setting [1] was 650 nM. `CC(C)(C)OC(=O)N1CCC(COc2ccc(C3=CCC(C(=O)NC4CCCC4)CC3)cc2)CC1` (stereo not shown) [Example 195, tert-butyl 4-((4-(4-(cyclopentylcarbamoyl)cyclohex-1-enyl)phenoxy)methyl)piperidine-1-carboxylate]: the EC50 is, setting by setting: under setting [1], 28 nM; (read-out: EC50 value) at most 50 nM. With `CC(C)(C)OC(=O)N1CCC(COc2ccc(C3=CCC(C(=O)N4CCC(F)(F)C4)CC3)cc2)CC1` (stereo not shown) [Example 257, tert-butyl 4-((4-(4-(3,3-difluoropyrrolidine-1-carbonyl)cyclohex-1-enyl)phenoxy)methyl)piperidine-1-carboxylate], the EC50 was 8 nM under setting [1] and at most 50 nM (read-out: EC50 value). On to `CON=C1CCN(C(=O)C2CC=C(c3ccc(OCC4CCN(C(=O)OC(C)(C)C)CC4)cc3)CC2)CC1` (stereo not shown) [Example 270, tert-butyl 4-((4-(4-(4-(methoxyimino)piperidine-1-carbonyl)cyclohex-1-enyl)phenoxy)methyl)piperidine-1-carboxylate], for which the EC50 under setting [1] amounted to 12 nM. Take `CC(C)c1noc(N2CCC(COc3ccc(C4=CCC(C(=O)N[C@H](C)CO)CC4)cc3)CC2)n1` (stereo partly drawn) [Example 20, N-((R)-1-hydroxypropan-2-yl)-4-(4-((1-(3-isopropyl-1,2,4-oxadiazol-5-yl)piperidin-4-yl)methoxy)phenyl)cyclohex-3-enecarboxamide]: the EC50 under setting [1] amounted to 90 nM.

In the case of `CC(C)c1noc(N2CCC(COc3ccc(C4=CCC(C(=O)N5CC[C@@H](F)C5)CC4)nc3)CC2)n1` (stereo partly drawn) [Example 101, ((R)-3-fluoropyrrolidin-1-yl)(4-(5-((1-(3-isopropyl-1,2,4-oxadiazol-5-yl)piperidin-4-yl)methoxy)pyridin-2-yl)cyclohex-3-enyl)methanone], the EC50 under setting [1] came to 110 nM. Consider `CCc1cnc(N2CCC(COc3ccc(C4=CCC(C(=O)N5CCC(CCO)CC5)CC4)cc3)CC2)nc1` (stereo not shown) [Example 173, (4-(4-((1-(5-ethylpyrimidin-2-yl)piperidin-4-yl)methoxy)phenyl)cyclohex-3-enyl)(4-(2-hydroxyethyl)piperidin-1-yl)methanone], for which the EC50 under setting [1] worked out at 18 nM.

Turning to `C[C@H](O)CNC(=O)C1CC=C(c2ccc(OCC3CCN(C(=O)OC(C)(C)C)CC3)cc2F)CC1` (stereo partly drawn) [Example 125, tert-butyl 4-((3-fluoro-4-(4-((S)-2-hydroxypropylcarbamoyl)cyclohex-1-enyl)phenoxy)methyl)piperidine-1-carboxylate], the EC50 under setting [1] is 70 nM. For the compound `CCc1cnc(N2CCC(COc3ccc(C4=CCC(C(=O)NCC(F)F)CC4)cc3)CC2)nc1` (stereo not shown) [Example 50, N-(2,2-difluoroethyl)-4-(4-((1-(5-ethylpyrimidin-2-yl)piperidin-4-yl)methoxy)phenyl)cyclohex-3-enecarboxamide], under setting [1], the EC50 is 95 nM.

In the case of `CCc1cnc(N2CCC(COc3ccc(C4=CCC(C(=O)NCC(F)(F)F)CC4)cc3)CC2)nc1` (stereo not shown) [Example 103, 4-(4-((1-(5-ethylpyrimidin-2-yl)piperidin-4-yl)methoxy)phenyl)-N-(2,2,2-trifluoroethyl)cyclohex-3-enecarboxamide], the EC50 under setting [1] amounted to 75 nM. As for `CC(C)(C)OC(=O)N1CCC(COc2ccc(C3=CCC(C(=O)NC[C@@H](O)CO)CC3)cc2F)CC1` (stereo partly drawn) [Example 64, tert-butyl 4-((4-(4-((R)-2,3-dihydroxypropylcarbamoyl)cyclohex-1-enyl)-2-fluorophenoxy)methyl)piperidine-1-carboxylate], the EC50 by setting is: under setting [1], 50 nM; (read-out: EC50 value) at most 50 nM. Take `CCc1cnc(N2CCC(COc3ccc(C4=CCC(C(=O)N(CCO)CCO)CC4)cc3)CC2)nc1` (stereo not shown) [Example 181, 4-(4-((1-(5-ethylpyrimidin-2-yl)piperidin-4-yl)methoxy)phenyl)-N,N-bis(2-hydroxyethyl)cyclohex-3-enecarboxamide]: the EC50 is, setting by setting: under setting [1], 24 nM; (read-out: EC50 value) at most 50 nM. Take `CCc1cnc(N2CCC(COc3ccc(C4=CCC(C(=O)N[C@H](C)CO)CC4)cc3)CC2)nc1` (stereo partly drawn) [Example 8, 4-(4-((1-(5-ethylpyrimidin-2-yl)piperidin-4-yl)methoxy)phenyl)-N-((R)-1-hydroxypropan-2-yl)cyclohex-3-enecarboxamide]: the 50% effective concentration (EC50) under setting [1] was 90 nM.

For `CCc1cnc(N2CCC(COc3ccc(C4=CCC(C(=O)N5CCN(C6CC6)CC5)CC4)cc3)CC2)nc1` (stereo not shown) [Example 123, (4-cyclopropylpiperazin-1-yl)(4-(4-((1-(5-ethylpyrimidin-2-yl)piperidin-4-yl)methoxy)phenyl)cyclohex-3-enyl)methanone], the EC50 reads like this: under setting [1], 35 nM; (read-out: EC50 value) at most 50 nM. Regarding `CC(C)c1noc(N2CCC(COc3ccc(C4=CCC(C(=O)NC(CO)CO)CC4)cc3)CC2)n1` (stereo not shown) [Example 23, N-(1,3-dihydroxypropan-2-yl)-4-(4-((1-(3-isopropyl-1,2,4-oxadiazol-5-yl)piperidin-4-yl)methoxy)phenyl)cyclohex-3-enecarboxamide], under setting [1], the EC50 stood at 160 nM. Consider `CC(C)c1noc(N2CCC(COc3ccc(C4=CCC(C(=O)NCC(=O)N5CCC[C@H]5C(N)=O)CC4)cc3F)CC2)n1` (stereo partly drawn) [Example 133, (2S)-1-(2-(4-(3-fluoro-4-((1-(3-isopropyl-1,2,4-oxadiazol-5-yl)piperidin-4-yl)methoxy)phenyl)cyclohex-3-enecarboxamido)acetyl)pyrrolidine-2-carboxamide], for which, under setting [1], the EC50 amounted to 400 nM. On to `CCc1cnc(N2CCC(COc3ccc(C4=CCC(C(=O)N(C)OC)CC4)cc3)CC2)nc1` (stereo not shown) [Example 197, 4-(4-((1-(5-ethylpyrimidin-2-yl)piperidin-4-yl)methoxy)phenyl)-N-methoxy-N-methylcyclohex-3-enecarboxamide], for which the EC50 is, setting by setting: under setting [1], 18 nM; (read-out: EC50 value) at most 50 nM. Turning to `CON(C)C(=O)C1CC=C(c2ccc(OCC3CCN(c4nc(C(C)C)no4)CC3)cc2)CC1` (stereo not shown) [Example 247, 4-(4-((1-(3-isopropyl-1,2,4-oxadiazol-5-yl)piperidin-4-yl)methoxy)phenyl)-N-methoxy-N-methylcyclohex-3-enecarboxamide], the EC50 under setting [1] stood at 16 nM and the EC50 (read-out: EC50 value) is at most 50 nM.

With `CC(C)c1noc(N2CCC(COc3ccc(C4=CCC(C(=O)N[C@@H](C)CO)CC4)cc3)CC2)n1` (stereo partly drawn) [Example 19, N-((S)-1-hydroxypropan-2-yl)-4-(4-((1-(3-isopropyl-1,2,4-oxadiazol-5-yl)piperidin-4-yl)methoxy)phenyl)cyclohex-3-enecarboxamide], the EC50 under setting [1] is 110 nM. For the compound `CC(C)(C)OC(=O)N1CCC(COc2ccc(C3=CCC(C(=O)N4CC[C@H](F)C4)CC3)cc2F)CC1` (stereo partly drawn) [Example 57, tert-butyl 4-((2-fluoro-4-(4-((S)-3-fluoropyrrolidine-1-carbonyl)cyclohex-1-enyl)phenoxy)methyl)piperidine-1-carboxylate], the EC50 runs as follows: under setting [1], 8 nM; (read-out: EC50 value) at most 50 nM.
